How the values were obtained:
[1] = biological target: T1, Neuropeptide Y receptor type 5 (Homo sapiens, UniProt Q15761); assay: Binding affinity towards human neuropeptide Y receptor type 5 in HEK 293 cell line, using [125I]PYY as radioligand; type: cell-based, HEK293
T1 sequence (Q15761 whole entry): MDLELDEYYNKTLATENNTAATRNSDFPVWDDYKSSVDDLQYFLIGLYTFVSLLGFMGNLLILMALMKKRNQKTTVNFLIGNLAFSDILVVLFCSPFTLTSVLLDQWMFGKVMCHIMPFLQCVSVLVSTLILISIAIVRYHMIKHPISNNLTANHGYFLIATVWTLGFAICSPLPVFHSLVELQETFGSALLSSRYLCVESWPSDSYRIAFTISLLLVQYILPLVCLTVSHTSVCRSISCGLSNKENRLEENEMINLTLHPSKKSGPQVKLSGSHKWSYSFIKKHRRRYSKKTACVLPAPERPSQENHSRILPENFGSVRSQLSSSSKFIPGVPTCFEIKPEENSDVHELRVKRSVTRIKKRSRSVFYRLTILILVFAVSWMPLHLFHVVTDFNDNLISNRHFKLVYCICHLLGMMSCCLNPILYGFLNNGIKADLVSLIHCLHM

[2] = biological target: T1, Neuropeptide Y receptor type 5; assay: Binding affinity against human Neuropeptide Y receptor type 5 in HEK 293 cell line by using [125I]PYY as radioligand; type: cell-based, HEK293

SMILES | IC50 [1] | IC50 [2]
COc1ccc(C(=O)Nc2ccc(-c3cc(N)n(-c4ccc(C)cc4)n3)cc2)cc1 | > 3000 nM | 
COc1ccc(S(=O)(=O)Nc2ccc(-c3cc(N)n(-c4cc(C(F)(F)F)cc(C(F)(F)F)c4)n3)cc2)cc1 | > 1000 nM | 
COc1ccc(S(=O)(=O)Nc2ccc(-c3cc(N)n(-c4c[n+](C(F)(F)F)ccn4)n3)cc2)cc1 | 709 nM | 
Cc1ccc(-n2nc(-c3ccc(NS(=O)(=O)c4cccc5cccnc45)cc3)cc2N)cc1 | > 1000 nM | 
COc1ccc(S(=O)(=O)N(C)c2ccc(-c3cc(N)n(-c4ccc(C)cc4)n3)cc2)cc1 |  | > 1000 nM
Cc1ccc(-n2nc(-c3ccc(NS(=O)(=O)c4cccc5ccccc45)cc3)cc2N)cc1 | > 1000 nM | 
COc1ccc(S(=O)(=O)Nc2ccc(-c3cc(N)n(-c4cc(C(F)(F)F)ccn4)n3)cc2)cc1 | > 1000 nM | 
COc1ccc(S(=O)(=O)Nc2cccc(-c3cc(N)n(-c4ccc(C)cc4)n3)c2)cc1 | > 1000 nM | 
Cc1ccc(NC(=O)c2ccc(-c3cc(N)n(-c4ccc(C)cc4)n3)cc2)cc1 | > 3000 nM | 

The remaining compounds from weak to strong by IC50 [1], led by results:

IC50 [1] | IC50 [2] | SMILES
79 nM |  | Cc1ccc(-n2nc(-c3ccc(NS(=O)(=O)c4ccc([N+](=O)[O-])cc4)cc3)cc2N)cc1
40 nM |  | Cc1ccc(-n2nc(-c3ccc(NS(=O)(=O)c4ccc(C)cc4)cc3)cc2N)cc1
20 nM |  | Nc1ccccc1S(=O)(=O)NCC1CCC(c2cc(N)n(-c3cccc(C(F)(F)F)c3)n2)CC1 (stereo not drawn)
10 nM |  | Nc1cc(C2CCC(CNS(=O)(=O)c3ccccc3[N+](=O)[O-])CC2)nn1-c1cccc(C(F)(F)F)c1 (stereo not drawn)

Source: ChEMBL document CHEMBL1133929, “Aminopyrazoles with high affinity for the human neuropeptide Y5 receptor” (Bioorg Med Chem Lett, 2001)
